In PMC11513923, “Discovery of ZLC491 as a Potent, Selective, and Orally Bioavailable CDK12/13 PROTAC Degrader” (Journal of Medicinal Chemistry, 2024):

Tests used:
CDK12/13 = test: Immunoblotting of CDK12 and CDK13 in MDA-MB-436 cells; type: cell-based, human; settings: increasing concentrations, 15 h
Description: To further characterize the compound, we determined the half-degradation concentration (DC50) values of ZLC491 in MDA-MB-231 cells. […] We also treated MDA-MB-231 cells with 1 μM ZLC491 at various time points.
(A) Immunoblotting of CDK12 and CDK13 in MDA-MB-231 cells treated with increasing concentrations of ZLC491 for 15 h (left). Percent remaining CDK12 and CDK13 proteins were plotted for DC50 determination (right). Protein levels were quantified using ImageJ and normalized to corresponding α-tubulin, then plotted using Graphpad Prism 8.0. The data were representative of three independent experiments; (B) immunoblotting of CDK12 and CDK13 proteins in MDA-MB-231 cells treated with ZLC491 for various time points; immunoblotting of CDK12 and CDK13 in HCC38 (C) and MDA-MB-436 (D) cells treated with increasing concentrations of ZLC491 for 15 h. α-Tubulin was used as a loading control. TEXT PRINTED IN THE PICTURE: (A) ZLC491: MDA-MB-231: CDK12 DC50 = 0.032μM; MDA-MB-231: CDK13 DC50 = 0.028μM DOUBTS OF THE COPYIST ABOUT THIS PICTURE: ZLC491, CDK12 DC50: 0.032 read from small print, the digits 3 and 2 are uncertain / ZLC491, CDK13 DC50: 0.028 read from small print, the last digit may be 8, 6 or 3 […]

CCNK = test: TMT-labeled quantitative proteomics in MDA-MB-231 cells; type: cell-based, Homo sapiens; settings: 8 h
Description: The global proteomic selectivity of ZLC491 was investigated by using the tandem mass tag (TMT) labeled mass-spectrometry. […] CDK13 was not detected in either degrader treatment groups or DMSO control groups, likely due to its insufficient cellular expression for mass spectrometry detection.
Figure 5 ZLC491 degraded CDK12/13 with high selectivity. (A) Global proteomic analysis of ZLC491 in MDA-MB-231 cells after 8 h treatment of DMSO or 2 μM ZLC491; (B) mass-spec quantification of CDKs changes; (C) immunoblotting of target protein degradation in samples for proteomic analysis.
MDA-MB-231 cells were seeded at 8 × 10^5 cells in 6 cm dishes 24 h before treating with 2 μM ZLC491 or DMSO in quadruplicate or triplicate for 8 h. […] Samples were quantified using a micro-BCA protein assay kit (Thermo Fisher Scientific) and 600 μg of each sample was processed and digested using the filter aided sample preparation (FASP) method followed by alkylation with iodoacetamide and digestion with trypsin. […]
The fractions were analyzed sequentially on an Orbitrap Fusion Lumos Mass Spectrometer (Thermo Scientific) coupled to a NanoLC-1200 UHPLC system (Thermo Scientific) with C18 capillary column. […] MS3 precursor were fragmented by HCD and analyzed with Orbitrap at NCE 65, AGC 1E5, resolution 60000. […]

N#Cc1ccc(N[C@H]2CC[C@H](N(C(=O)NCc3ccccc3)c3ccc(N4CCN(C5CCN(c6cc7c(cc6F)C(=O)N(C6CCC(=O)NC6=O)C7=O)CC5)CC4)cc3)CC2)nc1 (stereo partly drawn) [ZLC491, 3-Benzyl-1-((1r,4r)-4-((5-cyanopyridin-2-yl)amino)cyclohexyl)-1-(4-(4-(1-(2-(2,6-dioxopiperidin-3-yl)-6-fluoro-1,3-dioxoisoindolin-5-yl)piperidin-4-yl)piperazin-1-yl)phenyl)urea]
depletion of CDK12/13 (CDK12/13): concentration-dependent manner | FC_4-91 (CCNK) (CCNK; 2 μM ZLC491 vs DMSO): 0.4255 | CCNK level in global proteomics (CCNK; 2 μM): significantly decreased
